Data as given in US20140080810A1 (Exelixis, Inc., priority 2010, published 2014).
pIC50: −log10 of the molar value. Where two headings read alike, the source gives them in different places.

Legend:
PI3Kα = PI3Kα (Homo sapiens, UniProt P42336); test: PI3K Biochemical Assay (ATP consumed, luciferase-luciferin chemiluminescence); conditions: for pIC50: PIP2 used as substrate, read-out: PI3K biochemical IC50 values PI3Kα; for specificity among PI3Kα, PI3Kβ, PI3Kδ, PI3Kγ and mTOR: summary of Table 3
PI3Kα, sequence (P42336 whole entry): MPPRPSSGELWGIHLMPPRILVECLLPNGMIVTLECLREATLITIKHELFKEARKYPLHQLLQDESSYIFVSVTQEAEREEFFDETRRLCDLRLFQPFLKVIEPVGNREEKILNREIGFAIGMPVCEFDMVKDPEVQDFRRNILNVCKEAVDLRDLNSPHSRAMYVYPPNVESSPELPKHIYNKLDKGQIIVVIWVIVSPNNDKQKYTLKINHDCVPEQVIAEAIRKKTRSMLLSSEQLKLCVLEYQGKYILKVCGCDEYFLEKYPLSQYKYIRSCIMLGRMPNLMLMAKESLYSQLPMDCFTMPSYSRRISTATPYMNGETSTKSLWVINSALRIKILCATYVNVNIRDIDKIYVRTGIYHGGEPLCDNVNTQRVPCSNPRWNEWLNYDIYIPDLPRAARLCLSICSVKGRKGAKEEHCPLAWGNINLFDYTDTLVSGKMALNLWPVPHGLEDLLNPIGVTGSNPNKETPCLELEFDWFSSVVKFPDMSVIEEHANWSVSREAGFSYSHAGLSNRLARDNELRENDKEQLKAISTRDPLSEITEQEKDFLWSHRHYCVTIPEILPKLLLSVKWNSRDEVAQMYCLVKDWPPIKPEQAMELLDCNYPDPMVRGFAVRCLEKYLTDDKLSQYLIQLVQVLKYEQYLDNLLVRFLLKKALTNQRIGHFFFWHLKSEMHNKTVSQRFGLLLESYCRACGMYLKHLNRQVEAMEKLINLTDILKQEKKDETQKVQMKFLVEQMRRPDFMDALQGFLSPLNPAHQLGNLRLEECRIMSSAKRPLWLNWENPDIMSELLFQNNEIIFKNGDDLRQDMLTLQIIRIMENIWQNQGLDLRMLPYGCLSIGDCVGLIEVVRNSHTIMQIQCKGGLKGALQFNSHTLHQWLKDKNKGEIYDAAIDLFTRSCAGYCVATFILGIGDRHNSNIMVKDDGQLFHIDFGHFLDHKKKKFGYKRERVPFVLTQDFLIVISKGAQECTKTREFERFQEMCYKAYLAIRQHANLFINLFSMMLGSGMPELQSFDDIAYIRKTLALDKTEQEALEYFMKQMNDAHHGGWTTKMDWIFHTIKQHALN
PI3Kα, sequence (P27986 whole entry partner): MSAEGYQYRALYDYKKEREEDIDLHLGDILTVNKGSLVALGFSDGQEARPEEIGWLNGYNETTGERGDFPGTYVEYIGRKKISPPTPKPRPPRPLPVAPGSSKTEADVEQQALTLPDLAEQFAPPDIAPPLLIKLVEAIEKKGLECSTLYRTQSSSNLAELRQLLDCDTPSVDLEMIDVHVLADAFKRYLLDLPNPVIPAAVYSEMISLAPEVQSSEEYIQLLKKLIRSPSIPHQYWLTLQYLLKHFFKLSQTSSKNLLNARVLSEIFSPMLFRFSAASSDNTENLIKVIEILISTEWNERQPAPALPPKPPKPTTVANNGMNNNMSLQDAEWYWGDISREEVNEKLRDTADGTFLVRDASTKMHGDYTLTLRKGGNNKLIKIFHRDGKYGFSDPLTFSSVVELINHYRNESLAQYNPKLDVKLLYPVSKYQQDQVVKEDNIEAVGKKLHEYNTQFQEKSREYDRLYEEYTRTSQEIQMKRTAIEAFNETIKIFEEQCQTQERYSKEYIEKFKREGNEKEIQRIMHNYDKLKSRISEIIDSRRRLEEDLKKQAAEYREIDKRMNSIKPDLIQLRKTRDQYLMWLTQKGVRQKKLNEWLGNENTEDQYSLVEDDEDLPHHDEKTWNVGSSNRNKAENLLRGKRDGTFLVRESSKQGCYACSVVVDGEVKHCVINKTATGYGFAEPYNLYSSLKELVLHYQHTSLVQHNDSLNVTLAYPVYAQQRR
Description: (§1) PI3Kα activity is measured as the percent of ATP consumed following the kinase reaction using luciferase-luciferin-coupled chemiluminescence. Reactions were conducted in 384-well white, medium binding microtiter plates (Greiner). Kinase reactions were initiated by combining test compounds, ATP, substrate (PIP2), and kinase in a 20 μL volume in a buffer solution. The standard PI3Kalpha assay buffer is composed 50 mM Tris, pH 7.5, 1 mM EGTA, 10 mM MgCl2, 1 mM DTT and 0.03% CHAPS. The standard assay concentrations for enzyme, ATP, and substrate are 1.5 nM, 1 μM, and 10 μM, respectively. The reaction mixture was incubated at ambient temperature for approximately 2 h. Following the kinase reaction, a 10 μL aliquot of luciferase-luciferin mix (Promega Kinase-Glo) was added and the chemiluminescence signal measured using a Victor2 plate reader (Perkin Elmer). Total ATP consumption was limited to 40-60% and IC50 values of control compounds correlate well with literature references. Substituting PI3Kα with PI3Kβ, PI3Kγ, or PI3Kδ, the inhibitory activity of the compounds for the other isoforms of I3K were measured.

PI3Kα E545K = PI3Kα E545K (Homo sapiens, UniProt P42336, E545K); test: PI3K Biochemical Assay; conditions: PIP2 used as substrate
PI3Kα E545K, sequence (P42336 whole entry E545K): as the sequence (P42336 whole entry) above, with E545K counted along it
PI3Kα E545K, sequence (P27986 whole entry partner): as the sequence (P27986 whole entry partner) above
Description: as §1

PI3Kα H1047R = PI3Kα H1047R (Homo sapiens, UniProt P42336, H1047R); test: PI3K Biochemical Assay; conditions: PIP2 used as substrate
PI3Kα H1047R, sequence (P42336 whole entry H1047R): as the sequence (P42336 whole entry) above, with H1047R counted along it
PI3Kα H1047R, sequence (P27986 whole entry partner): as the sequence (P27986 whole entry partner) above
Description: as §1

PI3Kγ = PI3Kγ (Homo sapiens, UniProt P48736); test: PI3K Biochemical Assay; conditions: PIP2 used as substrate
PI3Kγ, sequence (P48736 whole entry): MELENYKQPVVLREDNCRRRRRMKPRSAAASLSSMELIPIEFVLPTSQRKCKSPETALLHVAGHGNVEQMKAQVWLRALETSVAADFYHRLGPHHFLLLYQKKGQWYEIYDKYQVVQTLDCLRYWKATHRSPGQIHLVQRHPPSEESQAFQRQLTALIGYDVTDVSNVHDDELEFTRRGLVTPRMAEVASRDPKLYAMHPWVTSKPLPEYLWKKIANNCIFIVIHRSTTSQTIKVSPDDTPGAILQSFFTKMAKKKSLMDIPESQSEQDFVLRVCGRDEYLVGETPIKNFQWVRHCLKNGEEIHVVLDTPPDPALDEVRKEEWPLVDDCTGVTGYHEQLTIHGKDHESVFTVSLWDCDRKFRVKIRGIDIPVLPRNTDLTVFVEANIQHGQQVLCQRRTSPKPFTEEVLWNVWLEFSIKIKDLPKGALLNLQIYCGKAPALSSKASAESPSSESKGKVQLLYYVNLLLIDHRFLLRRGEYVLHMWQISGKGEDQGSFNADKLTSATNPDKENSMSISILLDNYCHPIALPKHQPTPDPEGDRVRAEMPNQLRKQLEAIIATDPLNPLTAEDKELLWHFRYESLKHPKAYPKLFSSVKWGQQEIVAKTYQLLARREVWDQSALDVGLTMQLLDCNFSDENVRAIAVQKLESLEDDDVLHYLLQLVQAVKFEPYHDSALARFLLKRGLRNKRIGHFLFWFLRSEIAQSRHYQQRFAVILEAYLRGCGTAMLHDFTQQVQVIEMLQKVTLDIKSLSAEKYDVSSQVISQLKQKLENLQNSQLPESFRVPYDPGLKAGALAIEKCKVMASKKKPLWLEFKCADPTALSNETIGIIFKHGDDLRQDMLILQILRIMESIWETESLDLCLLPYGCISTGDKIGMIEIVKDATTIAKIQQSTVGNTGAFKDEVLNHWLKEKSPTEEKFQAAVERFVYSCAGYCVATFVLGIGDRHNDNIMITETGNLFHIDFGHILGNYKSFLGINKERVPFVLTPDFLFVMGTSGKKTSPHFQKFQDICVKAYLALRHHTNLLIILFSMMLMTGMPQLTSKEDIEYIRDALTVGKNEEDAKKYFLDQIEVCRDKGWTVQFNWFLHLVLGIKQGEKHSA
Description: as §1

PI3Kδ = PI3Kδ (Homo sapiens, UniProt O00329); test: PI3K Biochemical Assay; conditions: PIP2 used as substrate; read-out: PI3K biochemical IC50 values P13Kδ
PI3Kδ, sequence (O00329 whole entry): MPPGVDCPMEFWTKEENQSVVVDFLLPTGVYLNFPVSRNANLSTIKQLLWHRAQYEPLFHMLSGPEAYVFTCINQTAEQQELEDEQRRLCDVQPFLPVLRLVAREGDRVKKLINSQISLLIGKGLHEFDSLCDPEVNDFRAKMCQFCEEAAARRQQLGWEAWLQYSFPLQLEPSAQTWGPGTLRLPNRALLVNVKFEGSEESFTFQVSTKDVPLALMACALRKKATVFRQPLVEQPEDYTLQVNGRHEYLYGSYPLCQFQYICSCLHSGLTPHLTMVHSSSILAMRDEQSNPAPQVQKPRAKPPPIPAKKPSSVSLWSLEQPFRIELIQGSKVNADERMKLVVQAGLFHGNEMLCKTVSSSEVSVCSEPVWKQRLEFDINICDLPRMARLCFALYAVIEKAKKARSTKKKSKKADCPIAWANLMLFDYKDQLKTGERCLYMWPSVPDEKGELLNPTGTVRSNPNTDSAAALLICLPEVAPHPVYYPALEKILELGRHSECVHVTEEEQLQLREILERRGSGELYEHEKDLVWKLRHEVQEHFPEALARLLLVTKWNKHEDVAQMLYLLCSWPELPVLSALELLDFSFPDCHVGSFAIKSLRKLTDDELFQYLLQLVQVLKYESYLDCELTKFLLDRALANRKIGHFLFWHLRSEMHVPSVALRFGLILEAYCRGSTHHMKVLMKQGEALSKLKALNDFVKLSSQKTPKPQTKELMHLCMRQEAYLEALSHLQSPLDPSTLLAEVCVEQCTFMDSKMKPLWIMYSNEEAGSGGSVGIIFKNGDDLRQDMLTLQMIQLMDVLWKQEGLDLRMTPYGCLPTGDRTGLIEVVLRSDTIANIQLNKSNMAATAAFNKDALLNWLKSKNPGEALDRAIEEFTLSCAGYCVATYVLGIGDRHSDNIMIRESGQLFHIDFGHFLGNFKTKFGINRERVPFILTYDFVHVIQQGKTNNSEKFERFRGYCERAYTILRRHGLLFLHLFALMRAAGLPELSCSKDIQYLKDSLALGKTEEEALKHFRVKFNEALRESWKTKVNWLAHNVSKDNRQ
PI3Kδ, sequence (P27986 whole entry partner): as the sequence (P27986 whole entry partner) above
Description: as §1

[1] = system: pAKT (T308) in MCF-7 cells (PI3Kα E545K); test: pAKT (T308) ELISA Assay; type: cell-based; conditions: Homo sapiens, MCF7
Description: MCF-7 cells (ATCC) cells were seeded at 24000 cells per well in 96-well plates (Corning, 3904) in DMEM (Cellgro) containing 10% FBS (Cellgro), 1% NEAA (Cellgro) and 1% penicillin-streptomycin (Cellgro). Cells were incubated at 37° C., 5% CO2 for 48 h, and the growth medium was replaced with serum-free DMEM or in medium containing 0.4% BSA. Serial dilutions of the test Compound in 0.3% DMSO (vehicle) were added to the cells and incubated for 3 h. At the end of the incubation period, cells were stimulated for 10 minutes by the addition of L-IGF (Sigma, I-1271) at a final concentration of 100 ng/ml. Afterwards, media was discarded from cell plates and 110 μl/well of cold lysis buffer (see table below) were added. Cell plates were incubated on ice and then put on shaker in 4° C. cold room for 1 h. Two capture plates (Thermo Scientific, Reacti-bind plate, 15042) were prepared for each cell plate by pre-coating with capture Akt antibody from the two sandwich ELISA antibody pairs used (Cell Signaling Technology 7142 and 7144). The Akt capture antibodies were diluted 1:100 in PBS and 100 μl of diluted capture antibody was added per well. Capture plates were incubated at 4 C overnight. Prior to use, capture plates were washed 3 times in TBS containing 0.1% Tween20 (Bio-Rad, 170-6351) (TBST) and blocked in blocking buffer (Thermo Scientific, Starting Block T20, 37543) for 1-2 h at room temperature. After 1 h of cell lysis, 85 μl of cell lysate/well was transferred to the capture plate for detection of pAkt(T308). 15 μl of cell lysate was transferred from same well to the second capture plate for detection of total Akt1. After incubation overnight at 4° C., plates were washed 3 times with 200 μL TBST. Primary antibodies, diluted 1:100 in blocking buffer, were added to the corresponding capture plates for pAkt(T308) (Cell Signaling Technology, 7144) and total Akt1 (Cell Signaling Technology, 7142) detection and incubated at room temperature for 1 h. Plates were washed 3 times with 200 μL of TBST. Goat anti-mouse secondary antibody (Cell Signaling Technology, 7076) conjugated to HRP was diluted 1:1000 in blocking buffer and 100 μl were added to each well and incubated for 30 minutes at room temperature. Plates were then washed 3 times with 200 μL of TBST. 100 μL of SuperSignal ELISA Femto stable peroxidase solution (Thermo Scientific, 37075) was added to each well. After 1 minute incubation, chemiluminescence was read on a Wallac Victor2 1420 multilabel counter. IC50 values were determined based on the ratio of pAkt(T308) to total Akt1 signal for Compound treated wells, normalized to the DMSO-treated control wells.
In another embodiment, the pAKT ELISA Assay was performed by seeding cells onto 96-well plates (Corning, 3904) in their respective growth media at the densities listed in Table 5. Cells were incubated at 37° C., 5% CO2 for 48 h (except MDA-MB-453 cells which were cultured in the absence of CO2). Compounds were serially diluted in DMSO and subsequently diluted in serum-free DMEM. Test compounds were added to cells in serum-free DMEM at a final concentration of 0.3% DMSO and incubated for 3 h. Cells were lysed with 130 μL of ice-cold RIPA lysis buffer (50 mM Tris-HCl, pH 7.5; 0.5% sodium deoxycholic acid; 1% Triton X-100; 0.1% SDS; 150 mM NaCl) with protease and phosphatase inhibitors (1 mM EDTA, 1 mM NaF, 20 mM β-glycerophosphate, 1 mM Na-orthovanadate, Complete-Mini EDTA-free, Roche, 11836170001, and Phosphatase Inhibitor Cocktail I, Sigma, P2850), directly in 96-well plates. Cells were lysed on ice for 60-120 min at 4° C. The supernatants were added directly to capture ELISA plates previously pre-coated with rabbit anti-AKT capture antibody. ELISA assays for pAKT(T308) and total AKT were performed with the pAKT(T308) ELISA kit (Cell Signaling Technology, 7144) and AKT1 ELISA kit (Cell Signaling Technology, 7142). For the pAKT(T308) ELISA, 85 μL of cell lysate was added to each well. […]

[2] = IGF1 stimulation, read-out: pAKT (T308) IC50 MCF-7 PI3Kα E545K IGF1
[3] = Table 7, stimulation line of the head prints PI3Kα, read-out: Cellular pAKT (T308) IC50 PI3KαE545K MCF-7

| Compound | pIC50 (PI3Kα) | specificity among PI3Kα, PI3Kβ, PI3Kδ, PI3Kγ and mTOR (PI3Kα) | pIC50 (PI3Kα E545K) | pIC50 (PI3Kα H1047R) | pIC50 (PI3Kγ) | pIC50 (PI3Kδ) | pIC50 [1, 2] | pIC50 [1, 3] |
| --- | --- | --- | --- | --- | --- | --- | --- | --- |
| COc1ccc2c(N3CCOc4ccc(-c5cnc6nc(C)[nH]c6c5)cc4C3)nc(CN(C)C)nc2c1 [Compound 696] | 8.52 | specific for PI3Kα isoforms | 8.05 | 8.30 | 5.74 | 6.83 | 5.78 | 5.78 |
| CCNc1nc2ccc(-c3ccc4c(c3)CN(c3ncnc(NCC)c3C)CCO4)cc2[nH]1 [Compound 699] | 8.22 | specific for PI3Kα isoforms | 8.30 | 8.22 | 6.80 | 6.36 | 5.62 | 5.62 |
| Cc1nc2cc(-c3ccc4c(c3)CN(c3nc(CN(C)C)nc(C)c3C(C)C)CCO4)cnc2[nH]1 [Compound 694] | 8.40 |  | 8.22 | 8.30 | 5.73 | 6.08 | 6.87 | 6.87 |

Further molecules by rising pIC50 (PI3Kα), results first:

| pIC50 (PI3Kα) | specificity among PI3Kα, PI3Kβ, PI3Kδ, PI3Kγ and mTOR (PI3Kα) | pIC50 (PI3Kα E545K) | pIC50 (PI3Kα H1047R) | pIC50 (PI3Kγ) | pIC50 (PI3Kδ) | pIC50 [1, 2] | pIC50 [1, 3] | Compound |
| --- | --- | --- | --- | --- | --- | --- | --- | --- |
| 8.52 | specific for PI3Kα isoforms | 8.22 | 8.15 | 6.80 | 6.79 | 5.65 | 5.65 | CCNc1nc2ccc(-c3ccc4c(c3)CN(c3ccnc5cc(F)ccc35)CCO4)cc2[nH]1 [Compound 698] |
| 8.70 |  | 8.30 | 8.52 | 5.95 | 6.24 | 6.92 | 6.92 | Cc1nc2ncc(-c3ccc4c(c3)CN(c3nc(CN(C)C)nc5c3CC(C)(C)CC5)CCO4)cc2[nH]1 [Compound 693] |
